Measured values: patent US20070254309A1, “Methods for Assessing Embryo Viability” (Northern Sydney and Central Coast Area Health Service, priority 2006, published 2007)

Test system: p53
Assay: Western blot quantitation of p53 released into embryo culture media
Type: cell-based, mouse
Settings: embryos cultured in modHTF in the absence of Paf, compared with 0.1 μM Paf supplement; FIG. 3
Protocol: Embryos were collected and washed 3 times in cold PBS and transferred in a maximum volume of 1.5 μl PBS. Embryo culture media aliquots had embryos and all cells removed and then subjected to freeze drying. The lyophilized proteins were redissolved in 1.5 μl of water. Embryo or reconstituted culture media was mixed with 1.5 μl of 2X extraction buffer (2X PBS, 2% Triton X-100, 24 mM deoxycholic acid, 0.2% sodium dodecyl sulfate, 20 mM NaF, 20 mM Na4P2O7, 2 mM PMSF, 3.08 μM Aprotinin, 42 μM Leupeptin and 2.91 μM Pepstatin A-all from Sigma). The embryos were lysed by three cycles of freezing in liquid nitrogen and thawing (with vortexing). […]
Proteins were blotted into PVDF membranes (Hybond-P, Amersham Pharmacia) in a semi-dry blotting apparatus overnight using transfer buffer (12 mM Tris PH 7.0, 96 mM Glycine and 20% methanol). […] Membranes were probed with 1:500 diluted anti P53 antibody overnight at 4° C. in 2.5% skim milk, and detected with 1:500 diluted horse radish peroxidase (Jackson ImmunoResearch Laboratories, West Grove, Pa., USA) conjugated mouse antibody. […]
p53 was detected by Western blot as described above and densitometry was performed using Scion Image software (Scion Corporation, Frederick, Md., USA).

Substance: 1-o-octadecyl/hexadecyl-2-acetyl-sn-glycero-3-phosphocholine [Paf]
- extra-embryonic concentration of p53: higher
